# Experimental data reported in US20220204476A1, “RNA VIRUS INHIBITOR COMPOUNDS AND USES THEREOF” (The Governors of the University of Alberta, priority 2020, published 2022).
# How the values were obtained:
# [1] = Cytotoxicity, CellTiter-Glo luminescent cell viability assay; conditions: human (A549) and green monkey (Vero E6)
# SARS-CoV-2 3CLP = SARS-CoV-2 3CLP (Severe acute respiratory syndrome coronavirus 2, UniProt P0DTD1); assay: SARS-CoV-2 3CLP inhibition, FRET-based cleavage assay; type: biochemical; conditions: 80 nM SARS-CoV-2 3CLP, 100 μM substrate, 37° C., 10 min incubation, pH 7.8; read-out: 3CL Protease IC50
# SARS-CoV-2 = SARS-CoV-2 in vitro plaque reduction assay in Vero E6 cells; type: cell-based; conditions: Severe acute respiratory syndrome coronavirus 2, Vero C1008, MOI 0.0001 pfu/cell, plaques counted after 48 h, >5 μM = did not reduce plaque numbers by half at 10 μM, read-out: SARS-CoV-2 Antiviral EC50
SMILES,CC50 at 24 h [1] [nM],IC50 (SARS-CoV-2 3CLP) [nM],EC50 (SARS-CoV-2) [nM]
"COc1cccc2[nH]c(C(=O)N[C@@H](CC(C)C)C(=O)N[C@@H](C[C@@H]3CCCNC3=O)C(=O)COC(=O)c3c(Cl)cccc3Cl)cc12 [Compound 5, (3S)-3-{[N-(4-methoxy-1H-indole-2-carbonyl)-L-leucyl]amino}-2-oxo-4-[(3S)-2-oxopiperidin-3-yl]butyl 2,6-dichlorobenzoate]",> 200000,6.4,–
"COc1cccc2[nH]c(C(=O)N[C@@H](CC(C)C)C(=O)N[C@@H](C[C@@H]3CCCNC3=O)C(=O)COC(=O)c3c(C(F)(F)F)cccc3C(F)(F)F)cc12 [Compound 6, (3S)-3-{[N-(4-methoxy-1H-indole-2-carbonyl)-L-leucyl]amino}-2-oxo-4-[(3S)-2-oxopiperidin-3-yl]butyl 2,6-bis(trifluoromethyl)benzoate]",> 200000,1,210
"COc1cccc2[nH]c(C(=O)N[C@@H](CC(C)C)C(=O)N[C@@H](C[C@@H]3CCCNC3=O)C(=O)COC(=O)C(C)(C)C(F)(F)F)cc12 [Compound 13, (3S)-3-{[N-(4-methoxy-1H-indole-2-carbonyl)-L-leucyl]amino}-2-oxo-4-[(3S)-2-oxopiperidin-3-yl]butyl 3,3,3-trifluoro-2,2-dimethylpropanoate]",> 200000,20,> 5000
"COc1cccc2[nH]c(C(=O)N[C@@H](CC(C)C)C(=O)N[C@@H](C[C@@H]3CCCNC3=O)C(=O)COC(=O)c3c(C(F)(F)F)cc(C)nc3C)cc12 [Compound 18, (3S)-3-{[N-(4-methoxy-1H-indole-2-carbonyl)-L-leucyl]amino}-2-oxo-4-[(3S)-2-oxopiperidin-3-yl]butyl 2,6-dimethyl-4-(trifluoromethyl)pyridine-3-carboxylate]",> 200000,14,460
"COc1cccc2[nH]c(C(=O)N[C@@H](CC(C)C)C(=O)N[C@H](C#N)C[C@@H]3CCCNC3=O)cc12 [Compound 34, N-[(2S)-1-({(1S)-1-cyano-2-[(3S)-2-oxopiperidin-3-yl]ethyl}amino)-4-methyl-1-oxopentan-2-yl]-4-methoxy-1H-indole-2-carboxamide]",> 200000,13,2700
"COc1cc(Cl)cc2[nH]c(C(=O)N[C@@H](CC(C)(C)C)C(=O)N[C@H](C#N)C[C@@H]3CCCNC3=O)cc12 [Compound 35, 6-chloro-N-[(2S)-1-({(1S)-1-cyano-2-[(3S)-2-oxopiperidin-3-yl]ethyl}amino)-4,4-dimethyl-1-oxopentan-2-yl]-4-methoxy-1H-indole-2-carboxamide]",> 200000,–,1500
"CC(C)C[C@H](NC(=O)c1cc2c(OC(F)(F)F)cccc2[nH]1)C(=O)N[C@H](C#N)C[C@@H]1CCCNC1=O [Compound 40, N-[(2S)-1-({(1S)-1-cyano-2-[(3S)-2-oxopiperidin-3-yl]ethyl}amino)-4-methyl-1-oxopentan-2-yl]-4-(trifluoromethoxy)-1H-indole-2-carboxamide]",> 50000,14,2600
"CCOc1cccc2[nH]c(C(=O)N[C@@H](CC(C)C)C(=O)N[C@H](C#N)C[C@@H]3CCCNC3=O)cc12 [Compound 69, N-[(2S)-1-({(1S)-1-cyano-2-[(3S)-2-oxopiperidin-3-yl]ethyl}amino)-4-methyl-1-oxopentan-2-yl]-4-ethoxy-1H-indole-2-carboxamide]",> 200000,24,4800
"COc1cccc2[nH]c(C(=O)N[C@@H](CC(C)(C)C)C(=O)N[C@H](C#N)C[C@@H]3CCCNC3=O)cc12 [Compound 70, N-[(2S)-1-({(1S)-1-cyano-2-[(3S)-2-oxopiperidin-3-yl]ethyl}amino)-4,4-dimethyl-1-oxopentan-2-yl]-4-methoxy-1H-indole-2-carboxamide]",> 200000,–,> 5000
"CC(C)C[C@H](NC(=O)c1cc2c3c(ccc2[nH]1)CCO3)C(=O)N[C@H](C#N)C[C@@H]1CCCNC1=O [Compound 71, N-[(2S)-1-({(1S)-1-cyano-2-[(3S)-2-oxopiperidin-3-yl]ethyl}amino)-4-methyl-1-oxopentan-2-yl]-3,6-dihydro-2H-furo[2,3-e]indole-7-carboxamide]",> 200000,49,> 5000
"Cc1cc(C)c(C(=O)OCC(=O)[C@H](C[C@@H]2CCCNC2=O)NC(=O)[C@H](CC(C)C)NC(=O)[C@H]2CCCO2)c(C)n1 [Compound 73, (3S)-2-oxo-3-({N-[(2R)-oxolane-2-carbonyl]-L-leucyl}amino)-4-[(3S)-2-oxopiperidin-3-yl]butyl 2,4,6-trimethylpyridine-3-carboxylate]",> 200000,190,< 1000
"CC(C)C[C@H](NC(=O)[C@H]1CCCO1)C(=O)N[C@@H](C[C@@H]1CCNC1=O)C(=O)COC(=O)c1c(C(F)(F)F)cccc1C(F)(F)F [Compound 74, (3S)-2-oxo-3-({N-[(2R)-oxolane-2-carbonyl]-L-leucyl}amino)-4-[(3S)-2-oxopyrrolidin-3-yl]butyl 2,6-bis(trifluoromethyl)benzoate]",> 200000,110,< 1000
"COc1nccc2c1cc(C(=O)N[C@@H](CC(C)(C)C)C(=O)N[C@H](C#N)C[C@@H]1CCCNC1=O)n2C [Compound 100, N-[(2S)-1-({(1S)-1-cyano-2-[(3S)-2-oxopiperidin-3-yl]ethyl}amino)-4,4-dimethyl-1-oxopentan-2-yl]-4-methoxy-1-methyl-1H-pyrrolo[3,2-c]pyridine-2-carboxamide]",–,220,> 5000
"CC(C)(C)C[C@H](NC(=O)[C@H]1Cc2ccccc2N1C(=O)OCc1ccccc1)C(=O)N[C@H](C#N)C[C@@H]1CCCNC1=O [Compound 101, benzyl (2R)-2-{[(2S)-1-({(1S)-1-cyano-2-[(3S)-2-oxopiperidin-3-yl]ethyl}amino)-4,4-dimethyl-1-oxopentan-2-yl]carbamoyl}-2,3-dihydro-1H-indole-1-carboxylate]",–,180,> 5000
"CC(C)(C)C[C@H](NC(=O)[C@H]1Cc2ccccc2N1)C(=O)N[C@H](C#N)C[C@@H]1CCCNC1=O [Compound 102, (2R)—N-[(2S)-1-({(1S)-1-cyano-2-[(3S)-2-oxopiperidin-3-yl]ethyl}amino)-4,4-dimethyl-1-oxopentan-2-yl]-2,3-dihydro-1H-indole-2-carboxamide]",–,140,> 5000
"CC(C)C[C@H](NC(=O)[C@@H]1C[C@H]1c1ccccc1)C(=O)N[C@H](C#N)C[C@@H]1CCCNC1=O [Compound 106, N-{(1S)-1-cyano-2-[(3S)-2-oxopiperidin-3-yl]ethyl}-N^2-[(1R,2R)-2-phenylcyclopropane-1-carbonyl]-L-leucinamide]",–,69,> 5000
